In one assay the target is DGKalpha (Homo sapiens, UniProt P23743). The assay can be described thus: In vitro DGK inhibition assay (ADP-Glo, liposomes), DGKalpha. The format is biochemical. Set-up: hDGKalpha(1-735)-N-His; His (N); made in house; host or cells: Sf21 insect cells (baculovirus). The settings on record: 4 nM DGK α, 25 μM ATP, 125 uM DLG in liposomes, 1 hour reaction. In a few lines:
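Full-length human DGKα (4 nM) or DGKζ (2 nM) from Sf21 cells, with DLG substrate at 125 uM in PS/PC liposomes and ATP at 25 μM (α) or 50 μM (ζ); 1 h reaction. ADP formed read by ADP-Glo luminescence; compounds 11-point, 1:3 dilutions from 10 mM, 2% DMSO final.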
For orientation: ADP-Glo turns the ADP formed in a reaction into a luminescent signal.

The subject of another assay is primary human T-cells. The assay can be described thus: IL2 secretion measurements in CD3-stimulated T-cells. The format is cell-based. The settings on record: Homo sapiens, T-cell, 24 h, CD3 condition; for Emax: IL2 after 24 hours, 20 μM reference compound A1 = 100%, read-out: Emax IL2 (% activation); for EC50: IL2 secretion after 24 hours, read-out: Tcell IL2 CD3 EC50. The method, boiled down: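 Expanded primary human T-cells (100k/well) were stimulated on CD3 antibody-coated or PBS-coated plates with compounds in 5–6 point dose response from 20 or 10 μM top final (dilution factor 3.333, 0.2% DMSO final). IL2 in 24 h supernatants was measured by ProQuantum immunoassay or ELISA, normalized to DMSO (0%) and 20 μM reference compound A1 (100%) to fit EC50 and Emax.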

Chain of DGKalpha (P23743 whole entry): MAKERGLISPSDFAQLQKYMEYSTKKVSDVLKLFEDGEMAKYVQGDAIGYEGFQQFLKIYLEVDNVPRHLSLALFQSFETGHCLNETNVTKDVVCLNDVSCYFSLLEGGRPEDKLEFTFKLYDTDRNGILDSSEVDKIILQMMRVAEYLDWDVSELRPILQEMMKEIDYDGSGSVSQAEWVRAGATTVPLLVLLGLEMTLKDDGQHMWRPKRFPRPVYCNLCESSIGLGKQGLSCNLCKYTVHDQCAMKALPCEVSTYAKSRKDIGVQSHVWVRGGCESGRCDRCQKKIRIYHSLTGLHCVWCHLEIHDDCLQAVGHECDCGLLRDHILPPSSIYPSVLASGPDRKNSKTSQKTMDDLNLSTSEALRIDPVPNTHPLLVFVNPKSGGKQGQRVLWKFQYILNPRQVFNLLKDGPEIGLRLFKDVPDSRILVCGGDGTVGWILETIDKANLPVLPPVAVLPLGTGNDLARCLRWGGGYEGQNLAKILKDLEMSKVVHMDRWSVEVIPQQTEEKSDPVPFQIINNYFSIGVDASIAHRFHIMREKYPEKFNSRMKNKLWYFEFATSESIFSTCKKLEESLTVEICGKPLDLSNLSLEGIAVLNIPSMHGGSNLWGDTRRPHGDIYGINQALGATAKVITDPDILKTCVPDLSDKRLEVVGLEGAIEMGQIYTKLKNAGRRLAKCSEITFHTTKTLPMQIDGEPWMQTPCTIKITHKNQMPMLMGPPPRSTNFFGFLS

For orientation: IC50 means the point on the concentration scale where inhibition reaches its midpoint. What is called Emax is the greatest response seen or fitted, relative to the assay's reference. The term EC50 denotes the concentration that produces a half-maximal response. Take `CC(C)(c1nnc(-c2cc3c(cc2F)S(=O)(=O)C[C@H](N)C(=O)N3Cc2ccc(Oc3ccccc3)cc2)o1)S(C)(=O)=O` [Example 27, (3R)-3-amino-8-fluoro-7-[5-(1-methyl-1-methylsulfonyl-ethyl)-1,3,4-oxadiazol-2-yl]-1,1-dioxo-5-[(4-phenoxyphenyl)methyl]-2,3-dihydro-1λ6,5-benzothiazepin-4-one]: the IC50 on DGKalpha was found to be 483 nM. In the assay with primary human T-cells, the Emax amounted to 215% and the EC50 was determined as 2600 nM.
Take `CC(C)(c1nnc(-c2ccc3c(c2)N(Cc2ccc(OCc4ccc(F)cc4)cc2)C(=O)[C@@H](N)CS3(=O)=O)o1)S(C)(=O)=O` [Example 12, (3R)-3-amino-5-[[4-[(4-fluorophenyl)methoxy]phenyl]methyl]-7-[5-(1-methyl-1-methylsulfonyl-ethyl)-1,3,4-oxadiazol-2-yl]-1,1-dioxo-2,3-dihydro-1λ6,5-benzothiazepin-4-one]: 669 nM corresponded to half-maximal inhibition at DGKalpha (IC50). Further, in the assay on primary human T-cells, the maximal response (Emax) stood at 173% and the EC50 amounted to 1020 nM.
For the molecule `CC(C)(c1nc(-c2cc3c(cc2F)S(=O)(=O)C[C@H](N)C(=O)N3Cc2ccc(Oc3ccccc3)nc2)no1)S(C)(=O)=O` [Example 48, (3R)-3-amino-8-fluoro-7-[5-(1-methyl-1l-methylsulfonyl-ethyl)-1,2,4-oxadiazol-3-yl]-1,1-dioxo-5-[(6-phenoxy-3-pyridyl)methyl]-2,3-dihydro-1 λ6,5-benzothiazepin-4-one], the IC50 on DGKalpha came to 1960 nM. For the same molecule, in the assay on primary human T-cells, the Emax was 165% and the 50% effective concentration (EC50) came out at 1050 nM.
For `CC(C)(c1nnc(-c2cc3c(cc2F)S(=O)(=O)C[C@H](N)C(=O)N3Cc2ccc(Cl)cc2)o1)S(C)(=O)=O` [Example 2, (3R)-3-amino-5-[(4-chlorophenyl)methyl]-8-fluoro-7-[5-(1-methyl-1-methylsulfonyl-ethyl)-1,3,4-oxadiazol-2-yl]-1,1-dioxo-2,3-dihydro-1λ6,5-benzothiazepin-4-one], in that order: 1090 nM, 94% and 328 nM.
With `CC(C)(c1nnc(-c2ccc3c(c2)N(Cc2ccc(Oc4cccc(C(F)(F)F)c4)cc2)C(=O)[C@@H](N)CS3(=O)=O)o1)S(C)(=O)=O` [Example 38], on DGKalpha, the IC50 came to 3230 nM. In the assay on primary human T-cells, the Emax is 155% and the EC50 stood at 424 nM.
For `CC(C)(c1nnc(-c2ccc3c(c2)N(Cc2ccc(Oc4cc(F)cc(C(F)(F)F)c4)cc2)C(=O)[C@@H](N)CS3(=O)=O)o1)S(C)(=O)=O` [Example 39], in that order: 34900 nM, 106% and 813 nM.
For `COc1cccc(Oc2ccc(CN3C(=O)[C@@H](N)CS(=O)(=O)c4ccc(-c5nnc(C(C)(C)S(C)(=O)=O)o5)cc43)cc2)c1` [Example 42], in that order: 1160 nM, 125% and 3130 nM.
With `CC(C)(c1nc(-c2cc3c(cc2F)S(=O)(=O)C[C@H](N)C(=O)N3Cc2ccc(OCc3nc(C(F)(F)F)no3)cc2)no1)S(C)(=O)=O` [Example 59, (3R)-3-amino-8-fluoro-7-[5-(1-methyl-1-methylsulfonyl-ethyl)-1,2,4-oxadiazol-3-yl]-1,1-dioxo-5-[[4-[[3-(trifluoromethyl)-1,2,4-oxadiazol-5-yl]methoxy]phenyl]methyl]-2,3-dihydro-1λ6,5-benzothiazepin-4-one], it took 1850 nM to reach half-maximal inhibition on DGKalpha (IC50). Moreover, in the assay on primary human T-cells, the Emax came out at 135% and the EC50 amounted to 4270 nM.
Consider `CN(C)S(=O)(=O)C(C)(C)c1nnc(-c2ccc3c(c2)N(Cc2ccc(-c4ccc(C(F)(F)F)cc4)cc2)C(=O)[C@@H](N)CS3(=O)=O)o1` [Example 65, 2-[5-[(3R)-3-amino-1,1,4-trioxo-5-[[4-[4-(trifluoromethyl)phenyl]phenyl]methyl]-2,3-dihydro-1λ6,5-benzothiazepin-7-yl]-1,3,4-oxadiazol-2-yl]-N,N-dimethyl-propane-2-sulfonamide], for which, on DGKalpha, the half-maximal inhibitory concentration (IC50) is above 62500 nM. Also, in the assay on primary human T-cells, the Emax was 85% and the EC50 turned out to be 3160 nM.
In the case of `CC(C)(c1nnc(-c2ccc3c(c2)N(Cc2ccc(OC(F)(F)C(F)F)cc2)C(=O)[C@@H](N)CS3(=O)=O)o1)S(C)(=O)=O` [Example 3, (3R)-3-amino-7-[5-(1-methyl-1-methylsulfonyl-ethyl)-1,3,4-oxadiazol-2-yl]-1,1-dioxo-5-[[4-(1,1,2,2-tetrafluoroethoxy)phenyl]methyl]-2,3-dihydro-126,5-benzothiazepin-4-one], it took 1730 nM to reach half-maximal inhibition against DGKalpha (IC50). For the same molecule, in the assay with primary human T-cells, the Emax was determined as 102% and the EC50 was 1320 nM.
For `CC(C)(c1nnc(-c2ccc3c(c2)N(Cc2ccc(Oc4ccccc4)cc2)C(=O)[C@@H](N)CS3(=O)=O)o1)S(C)(=O)=O` [Example 5, (3R)-3-amino-7-[5-(1-methyl-1-methylsulfonyl-ethyl)-1,3,4-oxadiazol-2-yl]-1,1-dioxo-5-[(4-phenoxyphenyl)methyl]-2,3-dihydro-1λ6,5-benzothiazepin-4-one], in that order: 3120 nM, 118% and 2110 nM.
For `CC(C)(c1nc(-c2cc3c(cc2F)S(=O)(=O)C[C@H](N)C(=O)N3Cc2ccc(-c3noc(C4CC4)n3)cc2)no1)S(C)(=O)=O` [Example 45, (3R)-3-amino-5-[[4-(5-cyclopropyl-1,2,4-oxadiazol-3-yl)phenyl]methyl]-8-fluoro-7-[5-(1-methyl-1-methylsulfonyl-ethyl)-1,2,4-oxadiazol-3-yl]-1,1-dioxo-2,3-dihydro-1λ6,5-benzothiazepin-4-one], in that order: 818 nM, 190% and 195 nM.
For `CS(=O)(=O)Cn1nnc(-c2cc3c(cc2F)S(=O)(=O)C[C@H](N)C(=O)N3Cc2ccc(Oc3ccccc3)cc2)n1` [Example 54, (3R)-3-amino-8-fluoro-7-[2-(methylsulfonylmethyl)tetrazol-5-yl]-1,1-dioxo-5-[(4-phenoxyphenyl)methyl]-2,3-dihydro-1λ6,5-benzothiazepin-4-one], in that order: 1170 nM, 132% and 1040 nM.
On to `CC(C)(c1nnc(-c2cc3c(cc2F)S(=O)(=O)C[C@H](N)C(=O)N3Cc2ccc(OC(F)(F)C(F)F)cc2)o1)S(C)(=O)=O` [Example 26, (3R)-3-amino-8-fluoro-7-[5-(1-methyl-1-methylsulfonyl-ethyl)-1,3,4-oxadiazol-2-yl]-1,1-dioxo-5-[[4-(1,1,2,2-tetrafluoroethoxy)phenyl]methyl]-2,3-dihydro-1λ6,5-benzothiazepin-4-one], for which the IC50 at DGKalpha turned out to be 447 nM. Moreover, in the assay with primary human T-cells, the Emax came to 159% and the EC50 turned out to be 545 nM.
For `COc1ccc(-c2ccc(CN3C(=O)[C@@H](N)CS(=O)(=O)c4cc(F)c(-c5nnc(C(C)(C)S(C)(=O)=O)o5)cc43)cc2)cc1` [Example 29, (3R)-3-amino-8-fluoro-5-[[4-(4-methoxyphenyl)phenyl]methyl]-7-[5-(1-methyl-1-methylsulfonyl-ethyl)-1,3,4-oxadiazol-2-yl]-1,1-dioxo-2,3-dihydro-1λ6,5-benzothiazepin-4-one], in that order: 534 nM, 284% and 431 nM.
For `CC(C)(c1nnc(-c2ccc3c(c2)N(Cc2ccc(-c4ccc(C(F)(F)F)cc4)cc2)C(=O)[C@@H](N)CS3(=O)=O)o1)S(C)(=O)=O` [Example 56, (3R)-3-amino-7-[5-(1-methyl-1-methylsulfonyl-ethyl)-1,3,4-oxadiazol-2-yl]-1,1-dioxo-5-[[4-[4-(trifluoromethyl)phenyl]phenyl]methyl]-2,3-dihydro-1λ6,5-benzothiazepin-4-one], in that order: 10100 nM, 120% and 741 nM.
For `CS(=O)(=O)Cn1nnnc1-c1cc2c(cc1F)S(=O)(=O)C[C@H](N)C(=O)N2Cc1ccc(Oc2ccccc2)cc1` [Example 55, (3R)-3-amino-8-fluoro-7-[1-(methylsulfonyl-methyl)tetrazol-5-yl]-1,1-dioxo-5-[(4-phenoxyphenyl)methyl]-2,3-dihydro-1λ6,5-benzothiazepin-4-one], in that order: 18300 nM, 85% and 4180 nM.
